Laboratory results reported in patent EP4711368A1 (priority 2023, dated 2024).
Where two headings read alike, the source gives them in different places.

What was measured:
SD rats [1] = experiment: animal or person; assay type: in vivo; details: iv; for Minimal effective analgesic dose / Minimal effective anesthetic dose / Onset time / Righting feflex duration / Sedation Duration: rat, in vivo; for minimal effective dose: Rattus norvegicus
SD rats [2] = details: rat, in vivo; for MLD: iv
[3] = read-out: Minimal effective analgesic dose
[4] = read-out: Minimal effective anesthetic dose
For Onset time in this document: test concentration or dose not given here.
For Righting feflex duration in this document: test concentration or dose not given here.
For Sedation Duration in this document: test concentration or dose not given here.

Compound | Minimal effective analgesic dose (SD rats [1]) | Minimal effective anesthetic dose (SD rats [1]) | Onset time (SD rats [1]) | Righting feflex duration (SD rats [1]) | Sedation Duration (SD rats [1]) | TI (SD rats [2]) | MLD (SD rats [2]) | minimal effective dose (SD rats [1]; [3]) | minimal effective dose (SD rats [1]; [4]) | TI (SD rats [2]; SD) | MLD (SD rats [2]; SD)
Cc1cnc2n1-c1ccc(Br)cc1C(c1ccccn1)=NC2COC(=O)c1ccccc1 (stereo not shown) [Compound 191] | 20 mg/kg | 5.0 mg/kg | 0.45 to 0.53 min | 0.7 to 12.8 min | 53.5 to 155.3 min | 6.8 | 34.0 mg/kg | – | – | – | –
Cc1ccc(C(=O)OCC2N=C(c3ccccn3)c3cc(Br)ccc3-n3c(C)cnc32)cc1 (stereo not shown) [Compound 192] | – | 5.0 mg/kg | 0.2 to 0.4 min | 5.9 to 14.9 min | 156.7 to 200.0 min | 2.0 | 10.0 mg/kg | – | – | – | –
Cc1cnc2n1-c1ccc(Br)cc1C(c1ccccn1)=NC2COS(=O)c1ccccc1 (stereo not shown) [Compound 195] | 21.8 mg/kg | 7.5 mg/kg | 0.2 to 0.5 min | 5.3 to 76.6 min | 78.5 to 195.4 min | >2.9 | >21.8 mg/kg | – | – | – | –
Cc1cnc2n1-c1ccc(Br)cc1C(c1ccccn1)=NC2COC(=O)CN(C)C (stereo not shown) [Compound 196] | – | 15 mg/kg | 0.2 to 1.4 min | 9.5 to 23.6 min | 214.5 to 403.5 min | 3.3 | 50 mg/kg | – | – | – | –
CC(C)OC(=O)CN1N=C(c2ccccn2)c2cc(Br)ccc2N(C)C1=O [Compound 239] | – | – | 0.17 to 0.75 min | 1.30 to 11.58 min | 17.72 to 23.57 min | – | – | 10 mg/kg | 5 mg/kg | 8 | 40 mg/kg
CC(C)COC(=O)CN1N=C(c2ccccn2)c2cc(Br)ccc2N(C)C1=O [Compound 240] | – | – | 0.30 to 0.48 min | 0.62 to 15.83 min | 15.27 to 36.70 min | – | – | 30 mg/kg | 10 mg/kg | 3 | 30 mg/kg
CCC(C)OC(=O)CN1N=C(c2ccccn2)c2cc(Br)ccc2N(C)C1=O (stereo not shown) [Compound 241] | – | – | 0.43 to 0.90 min | 3.47 to 30.13 min | 18.10 to 73.95 min | – | – | – | 7.5 mg/kg | 4 | 30 mg/kg
CC[C@H](C)OC(=O)CN1N=C(c2ccccn2)c2cc(Br)ccc2N(C)C1=O [Compound 242] | – | – | 0.28 to 0.55 min | 5.05 to 18.42 min | 19.98 to 46.92 min | – | – | – | 7.5 mg/kg | 4 | 30 mg/kg
CC[C@@H](C)OC(=O)CN1N=C(c2ccccn2)c2cc(Br)ccc2N(C)C1=O [Compound 243] | – | – | 0.22 to 0.67 min | 0.65 to 19.85 min | 21.98 to 55.45 min | – | – | – | 5 mg/kg | 6 | 30 mg/kg
CN1C(=O)N(CC(=O)OC2CC2)N=C(c2ccccn2)c2cc(Br)ccc21 [Compound 244] | – | – | 0.15 to 0.18 min | 0.78 to 3.85 min | 11.42 to 18.83 min | – | – | – | 15 mg/kg | 2.7 | 40 mg/kg
CN1C(=O)N(CC(=O)OC2COC2)N=C(c2ccccn2)c2cc(Br)ccc21 [Compound 245] | – | – | 0.15 to 0.67 min | 1.27 to 1.40 min | 11.02 to 18.83 min | – | – | 20 mg/kg | 10 mg/kg | 4 | 40 mg/kg
CCC(CC)OC(=O)CN1N=C(c2ccccn2)c2cc(Br)ccc2N(C)C1=O [Compound 247] | – | – | 0.28 min | 30.15 min | 88.25 min | – | – | 20 mg/kg | 20 mg/kg | 1.5 | 30 mg/kg
C=CC(C)OC(=O)CN1N=C(c2ccccn2)c2cc(Br)ccc2N(C)C1=O (stereo not shown) [Compound 248] | – | – | 0.15 to 0.52 min | 2.97 to 38.32 min | 138.4 to 240 min | – | – | 20 mg/kg | 10 mg/kg | 4 | 40 mg/kg
CC(C)C(C)OC(=O)CN1N=C(c2ccccn2)c2cc(Br)ccc2N(C)C1=O (stereo not shown) [Compound 249] | – | – | 0.50 to 0.62 min | 6.55 to 13.37 min | 23.30 to 42.37 min | – | – | 15 mg/kg | 10 mg/kg | 2 | 20 mg/kg
CC(OC(=O)CN1N=C(c2ccccn2)c2cc(Br)ccc2N(C)C1=O)C1CC1 (stereo not shown) [Compound 250] | – | – | 0.53 min | 13.62 min | 21.55 min | – | – | – | 20 mg/kg | >1 | –
C#C[C@H](C)OC(=O)CN1N=C(c2ccccn2)c2cc(Br)ccc2N(C)C1=O [Compound 252] | – | – | 0.43 min | 2.92 to 5.05 min | 9.95 to 10.58 min | – | – | 30 mg/kg | 20 mg/kg | 2 | 40 mg/kg
CN1C(=O)N(CC(=O)OC2(C)COC2)N=C(c2ccccn2)c2cc(Br)ccc21 [Compound 253] | – | – | 0.87 to 0.88 min | 1.38 to 11.07 min | 10.13 to 31.28 min | – | – | 20 mg/kg | 10 mg/kg | 3 | 30 mg/kg
C=CC1(OC(=O)CN2N=C(c3ccccn3)c3cc(Br)ccc3N(C)C2=O)COC1 [Compound 254] | – | – | 0.60 to 0.65 min | 0.78 to 3.10 min | 29.25 to 40.22 min | – | – | – | 10 mg/kg | 2 | 20 mg/kg
CCC(C)(C)OC(=O)CN1N=C(c2ccccn2)c2cc(Br)ccc2N(C)C1=O [Compound 255] | – | – | 0.53 to 0.97 min | 12.27 to 13.62 min | 43.43 to 66.14 min | – | – | 20 mg/kg | 15 mg/kg | 2 | 30 mg/kg
CCN1C(=O)N(CC(=O)OC(C)C)N=C(c2ccccn2)c2cc(Br)ccc21 [Compound 256] | – | – | 0.17 to 0.50 min | 0.32 to 26.03 min | 13.38 to 59.65 min | – | – | 10 mg/kg | 5 mg/kg | 6 | 30 mg/kg
CC(C)OC(=O)CN1N=C(c2ccccn2)c2cc(Br)ccc2N(C(C)C)C1=O [Compound 257] | – | – | 0.77 to 1.48 min | 5.85 to 20.40 min | 33.47 to 64.03 min | – | – | 10 mg/kg | 10 mg/kg | 4 | 40 mg/kg
CC(C)OC(=O)CCN1N=C(c2ccccn2)c2cc(Br)ccc2N(C)C1=O [Compound 260] | – | – | 0.12 min | 7.52 min | 55.52 min | – | – | 40 mg/kg | 40 mg/kg | 1.4 | 55 mg/kg
CCn1nnnc1CCN1N=C(c2ccccn2)c2cc(Br)ccc2N(C)C1=O [Compound 264] | – | – | 0.43 min | 1.77 min | 8.93 min | – | – | – | 5 mg/kg | 2 | 10 mg/kg
CC(C)n1nnnc1CCN1N=C(c2ccccn2)c2cc(Br)ccc2N(C)C1=O [Compound 266] | – | – | 0.40 to 0.52 min | 0.58 to 4.00 min | 12.07 to 16.32 min | – | 15 mg/kg | – | 5 mg/kg | 3 | –
